Four molecules from PubChem BioAssay AID1259411 (Chemical Carcinogenesis Research Information System (CCRIS), 2018) can be followed below.

The test system of the data set is rodent carcinogenicity bioassays, tumor incidence. Briefly: CCRIS carcinogenicity studies. A digest of the protocol:
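NCI-built, expert-reviewed records of carcinogenicity and related test outcomes (mutagenicity, tumor promotion/inhibition) compiled from published and report sources, historical span 1985-2011, not updated.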

Activity calls are given as the source filed them. How the calls were made is not given here.

Consider `O=[O+][O-]`, for which the carcinogen call is, setting by setting: (Species: MOUSE, Strain/Sex: B6C3F1/FEMALE, Route: INHALATION, Dose: 0, 0.12, 0.5, 1 PPM 6 HR/D 5 D/WK FOR 105 WK (STUDY DURATION: 105 WK), Dose: 0, 0.12, 0.5, 1 PPM 6 HR/D 5 D/WK FOR 105 WK (STUDY DURATION: 105 WK), Tumor Site: Type of Lesion: LUNG (ALVEOLAR/BRONCHIOLAR): ADENOMA OR CARCINOMA) “active; positive”; (Species: MOUSE, Strain/Sex: B6C3F1/FEMALE, Route: INHALATION, Dose: 0, 0.5, 1 PPM 6 HR/D 5 D/WK FOR 130 WK (STUDY DURATION: 130 WK), Dose: 0, 0.5, 1 PPM 6 HR/D 5 D/WK FOR 130 WK (STUDY DURATION: 130 WK), Tumor Site: Type of Lesion: LUNG (ALVEOLAR/BRONCHIOLAR): ADENOMA) “active; positive”; (Species: MOUSE, Strain/Sex: B6C3F1/MALE, Route: INHALATION, Dose: 0, 0.12, 0.5, 1 PPM 6 HR/D 5 D/WK FOR 105 WK (STUDY DURATION: 105 WK), Dose: 0, 0.12, 0.5, 1 PPM 6 HR/D 5 D/WK FOR 105 WK (STUDY DURATION: 105 WK), Tumor Site: Type of Lesion: LUNG: ALVEOLAR/BRONCHIOLAR ADENOMA OR CARCINOMA) “equivocal”; (Species: MOUSE, Strain/Sex: B6C3F1/MALE, Route: INHALATION, Dose: 0, 0.5, 1 PPM 6 HR/D 5 D/WK FOR 130 WK (STUDY DURATION: 130 WK), Dose: 0, 0.5, 1 PPM 6 HR/D 5 D/WK FOR 130 WK (STUDY DURATION: 130 WK), Tumor Site: Type of Lesion: LUNG: ALVEOLAR/BRONCHIOLAR ADENOMA OR CARCINOMA) “equivocal”; (Species: RAT, Strain/Sex: F344/FEMALE, Route: INHALATION, Dose: 0, 0.12, 0.5, 1 PPM 6 HR/D 5 D/WK FOR 20 MO (STUDY DURATION: 20 MO), Dose: 0, 0.12, 0.5, 1 PPM 6 HR/D 5 D/WK FOR 20 MO (STUDY DURATION: 20 MO)) “inactive; negative”; (Species: RAT, Strain/Sex: F344/FEMALE, Route: INHALATION, Dose: 0, 0.12, 0.5, 1 PPM 6 HR/D 5 D/WK FOR 105 WK (STUDY DURATION: 105 WK), Dose: 0, 0.12, 0.5, 1 PPM 6 HR/D 5 D/WK FOR 105 WK (STUDY DURATION: 105 WK)) “inactive; negative”. Also, the carcinogen call (Species: RAT, Strain/Sex: F344/FEMALE, Route: INHALATION, Dose: 0, 0.5, 1 PPM 6 HR/D 5 D/WK FOR 125 WK (STUDY DURATION: 125 WK), Dose: 0, 0.5, 1 PPM 6 HR/D 5 D/WK FOR 125 WK (STUDY DURATION: 125 WK)) was “inactive; negative”; the carcinogen call (Species: RAT, Strain/Sex: F344/MALE, Route: INHALATION, Dose: 0, 0.12, 0.5, 1 PPM 6 HR/D 5 D/WK FOR 20 MO (STUDY DURATION: 20 MO), Dose: 0, 0.12, 0.5, 1 PPM 6 HR/D 5 D/WK FOR 20 MO (STUDY DURATION: 20 MO)) is “inactive; negative”; the carcinogen call (Species: RAT, Strain/Sex: F344/MALE, Route: INHALATION, Dose: 0, 0.12, 0.5, 1 PPM 6 HR/D 5 D/WK FOR 105 WK (STUDY DURATION: 105 WK), Dose: 0, 0.12, 0.5, 1 PPM 6 HR/D 5 D/WK FOR 105 WK (STUDY DURATION: 105 WK)) was “inactive; negative”; the carcinogen call (Species: RAT, Strain/Sex: F344/MALE, Route: INHALATION, Dose: 0, 0.5, 1 PPM 6 HR/D 5 D/WK FOR 125 WK (STUDY DURATION: 125 WK), Dose: 0, 0.5, 1 PPM 6 HR/D 5 D/WK FOR 125 WK (STUDY DURATION: 125 WK)) was “inactive; negative”.
Regarding `O=C1C(O)N=C(c2ccccc2F)c2cc(Cl)ccc2N1CCO` (configuration not stated), the carcinogen call is “inactive; negative” (Species: RAT, Strain/Sex: SPRAGUE-DAWLEY/FEMALE, Route: ORAL, Dose: 0, 3, 10, 30 MG/KG IN THE DIET FOR 104 WK (STUDY DURATION: 104 WK), Dose: 0, 3, 10, 30 MG/KG IN THE DIET FOR 104 WK (STUDY DURATION: 104 WK)) and “inactive; negative” (Species: RAT, Strain/Sex: SPRAGUE-DAWLEY/MALE, Route: ORAL, Dose: 0, 3, 10, 30 MG/KG IN THE DIET FOR 104 WK (STUDY DURATION: 104 WK), Dose: 0, 3, 10, 30 MG/KG IN THE DIET FOR 104 WK (STUDY DURATION: 104 WK)).
`C=C(Cl)Cl`: the carcinogen call (Species: FISH, Strain/Sex: SHASTA RAINBOW TROUT/MALE, FEMALE, Route: ORAL, Dose: 0, 2000 PPM IN DIET FOR 18 MO (STUDY DURATION: 18 MO)) was “inactive; negative”; the carcinogen call (Species: MOUSE, Route: INHALATION, Tumor Site: Type of Lesion: KIDNEY, LUNG, LIVER, Tumor Site: Type of Lesion: KIDNEY, LUNG, LIVER) was “active; positive”; the carcinogen call (Species: RAT, Strain/Sex: SPRAGUE-DAWLEY/FEMALE, Route: GAVAGE, Dose: 0, 0.5, 5, 10, 20 MG/KG BW IN OLIVE OIL 1/D 4-5 D/WK FOR 52-59 WK (STUDY DURATION: LIFETIME), Dose: 0, 0.5, 5, 10, 20 MG/KG BW IN OLIVE OIL 1/D 4-5 D/WK FOR 52-59 WK (STUDY DURATION: LIFETIME), Tumor Site: Type of Lesion: [BRAIN WAS ONLY SITE EVALUATED]) is “inactive; negative”; the carcinogen call (Species: RAT, Strain/Sex: SPRAGUE-DAWLEY/FEMALE, Route: INHALATION, Dose: 0, 10, 25, 50, 100, 150 PPM IN AIR 4 HR/D 4-5 D/WK FOR 52 WK (STUDY DURATION: LIFETIME), Dose: 0, 10, 25, 50, 100, 150 PPM IN AIR 4 HR/D 4-5 D/WK FOR 52 WK (STUDY DURATION: LIFETIME), Tumor Site: Type of Lesion: [BRAIN WAS ONLY SITE EVALUATED]) was “inactive; negative”; the carcinogen call (Species: RAT, Strain/Sex: SPRAGUE-DAWLEY/FEMALE, Route: INHALATION, Dose: 0, 100 PPM 4 HR/D 5 D/WK FOR 7 WK THEN 7 HR/D 5 D/WK FOR 8 WK ADMINISTERED TO RAT EMBRYOS BEGINNING ON THE 12TH DAY OF G) is “inactive; negative”; the carcinogen call (Species: RAT, Strain/Sex: SPRAGUE-DAWLEY/FEMALE, Route: INHALATION, Dose: 0, 100 PPM 4 HR/D 5 D/WK FOR 7 WK THEN 7 HR/D 5 D/WK FOR 97 WK ADMINISTERED TO BREEDER RATS (STUDY DURATION: 104 WK)) is “inactive; negative”. Also, the carcinogen call was “active; positive” (Species: RAT, Strain/Sex: SPRAGUE-DAWLEY/FEMALE, Route: INHALATION, Dose: 0, 100 PPM 4 HR/D 5 D/WK FOR 7 WK THEN 7 HR/D 5 D/WK FOR 97 WK ADMINISTERED TO RAT EMBRYOS BEGINNING ON 12TH DAY OF GEST, Tumor Site: Type of Lesion: HEMATOPOIETIC SYSTEM: LEUKEMIA); “inactive; negative” (Species: RAT, Strain/Sex: SPRAGUE-DAWLEY/FEMALE, Route: ORAL, Dose: 0, 50, 100, 200 PPM IN DRINKING WATER FOR 2 YR (STUDY DURATION: 2 YR), Dose: 0, 50, 100, 200 PPM IN DRINKING WATER FOR 2 YR (STUDY DURATION: 2 YR)); “inactive; negative” (Species: RAT, Strain/Sex: SPRAGUE-DAWLEY/MALE, Route: GAVAGE, Dose: 0, 0.5, 5, 10, 20 MG/KG BW IN OLIVE OIL 1/D 4-5 D/WK FOR 52-59 WK (STUDY DURATION: LIFETIME), Dose: 0, 0.5, 5, 10, 20 MG/KG BW IN OLIVE OIL 1/D 4-5 D/WK FOR 52-59 WK (STUDY DURATION: LIFETIME), Tumor Site: Type of Lesion: [BRAIN WAS ONLY SITE EVALUATED]); “inactive; negative” (Species: RAT, Strain/Sex: SPRAGUE-DAWLEY/MALE, Route: INHALATION, Dose: 0, 10, 25, 50, 100, 150 PPM IN AIR 4 HR/D 4-5 D/WK FOR 52 WK (STUDY DURATION: LIFETIME), Dose: 0, 10, 25, 50, 100, 150 PPM IN AIR 4 HR/D 4-5 D/WK FOR 52 WK (STUDY DURATION: LIFETIME), Tumor Site: Type of Lesion: [BRAIN WAS ONLY SITE EVALUATED]); “inactive; negative” (Species: RAT, Strain/Sex: SPRAGUE-DAWLEY/MALE, Route: INHALATION, Dose: 0, 100 PPM 4 HR/D 5 D/WK FOR 7 WK THEN 7 HR/D 5 D/WK FOR 8 WK ADMINISTERED TO RAT EMBRYOS BEGINNING ON THE 12TH DAY OF G); “inactive; negative” (Species: RAT, Strain/Sex: SPRAGUE-DAWLEY/MALE, Route: INHALATION, Dose: 0, 100 PPM 4 HR/D 5 D/WK FOR 7 WK THEN 7 HR/D 5 D/WK FOR 97 WK ADMINISTERED TO RAT EMBRYOS BEGINNING ON 12TH DAY OF GEST). For the same molecule, the carcinogen call (Species: RAT, Strain/Sex: SPRAGUE-DAWLEY/MALE, Route: ORAL, Dose: 0, 50, 100, 200 PPM IN DRINKING WATER FOR 2 YR (STUDY DURATION: 2 YR), Dose: 0, 50, 100, 200 PPM IN DRINKING WATER FOR 2 YR (STUDY DURATION: 2 YR)) is “inactive; negative” and the carcinogen call (Species: RAT, Strain/Sex: SPRAGUE-DAWLEY, Route: INHALATION, Tumor Site: Type of Lesion: MAMMARY GLAND: FIBROADENOMA, CARCINOMA) is “active; positive”.
On to `O=C(O)[C@H]1O[C@@H](Nc2ccc3c(c2)Cc2ccccc2-3)[C@H](O)[C@@H](O)[C@@H]1O`, for which the carcinogen call (Species: RAT, Strain/Sex: F344/MALE, Route: INJECTION, Dose: 0;1 UMOL IN 0.5 ML OF SOLUTION CONTAINING 0.4 ML PHOSPHATE BUFFERED SALINE/ GENTAMYCIN (PH 7) AND 0.1 ML DMSO INJECTED I) was “inactive; negative”.
